From ChEMBL document CHEMBL4507278 (2021)

Columns and labels:
[1] = molecular target: Ephrin type-A receptor 4 (Homo sapiens) (UniProt P54764); settings: Compound concentration 1000.0 nM
[2] = molecular target: 5-hydroxytryptamine receptor 1D (Homo sapiens) (UniProt P28221); settings: Compound concentration 10.0 uM
[3] = molecular target: LIM domain kinase 2 (Homo sapiens) (UniProt P53671); settings: Compound concentration 1000.0 nM
[4] = molecular target: cAMP-dependent protein kinase catalytic subunit PRKX (Homo sapiens) (UniProt P51817); settings: Compound concentration 1000.0 nM
[5] = molecular target: Mitogen-activated protein kinase kinase kinase 9 (Homo sapiens) (UniProt P80192); settings: Compound concentration 1000.0 nM
[6] = molecular target: Hepatocyte growth factor receptor (Homo sapiens) (UniProt P08581); settings: Compound concentration 1000.0 nM
[7] = molecular target: Serine/threonine-protein kinase SIK2 (Homo sapiens) (UniProt Q9H0K1); settings: Compound concentration 1000.0 nM
[8] = molecular target: NT-3 growth factor receptor (Homo sapiens) (UniProt Q16288); settings: Compound concentration 1000.0 nM
[9] = molecular target: Serine/threonine-protein kinase 4 (Homo sapiens) (UniProt Q13043); settings: Compound concentration 1000.0 nM
[10] = test system: Tyrosine-protein kinase ABL1 (Homo sapiens), P00519 [H396P]; settings: Compound concentration 1000.0 nM
[11] = molecular target: Cyclin-dependent kinase 11A (Homo sapiens) (UniProt Q9UQ88); settings: Compound concentration 1000.0 nM
[12] = test system: Epidermal growth factor receptor (Homo sapiens), P00533 [T790M]; settings: Compound concentration 1000.0 nM
[13] = molecular target: Serine/threonine-protein kinase pim-2 (Homo sapiens) (UniProt Q9P1W9); settings: Compound concentration 1000.0 nM
[14] = molecular target: Cyclin-dependent kinase-like 2 (Homo sapiens) (UniProt Q92772); settings: Compound concentration 1000.0 nM
[15] = molecular target: cGMP-dependent protein kinase 1 (Homo sapiens) (UniProt Q13976); settings: Compound concentration 1000.0 nM
[16] = molecular target: Serine/threonine-protein kinase Nek2 (Homo sapiens) (UniProt P51955); settings: Compound concentration 1000.0 nM
[17] = molecular target: Fibroblast growth factor receptor 4 (Homo sapiens) (UniProt P22455); settings: Compound concentration 1000.0 nM
[18] = molecular target: Serine/threonine-protein kinase PknB (Mycobacterium tuberculosis) (UniProt P9WI81); settings: Compound concentration 1000.0 nM
[19] = molecular target: G protein-coupled receptor kinase 3 (Homo sapiens) (UniProt P35626); settings: Compound concentration 1000.0 nM
[20] = molecular target: Mu-type opioid receptor (Homo sapiens) (UniProt P35372); settings: Compound concentration 10.0 uM
[21] = test system: Phosphatidylinositol 4,5-bisphosphate 3-kinase catalytic subunit alpha isoform (Homo sapiens), P42336 [E542K]; settings: Compound concentration 1000.0 nM
[22] = molecular target: Mitogen-activated protein kinase 9 (Homo sapiens) (UniProt P45984); settings: Compound concentration 1000.0 nM
[23] = molecular target: Death-associated protein kinase 3 (Homo sapiens) (UniProt O43293); settings: Compound concentration 1000.0 nM
[24] = molecular target: Cyclin-dependent kinase 19 (Homo sapiens) (UniProt Q9BWU1); settings: Compound concentration 1000.0 nM
[25] = molecular target: Mitogen-activated protein kinase 7 (Homo sapiens) (UniProt Q13164); settings: Compound concentration 1000.0 nM
[26] = molecular target: T1, 5-hydroxytryptamine receptor 3A (Homo sapiens) (UniProt P46098); settings: Compound concentration 10.0 uM
T1 sequence (whole entry): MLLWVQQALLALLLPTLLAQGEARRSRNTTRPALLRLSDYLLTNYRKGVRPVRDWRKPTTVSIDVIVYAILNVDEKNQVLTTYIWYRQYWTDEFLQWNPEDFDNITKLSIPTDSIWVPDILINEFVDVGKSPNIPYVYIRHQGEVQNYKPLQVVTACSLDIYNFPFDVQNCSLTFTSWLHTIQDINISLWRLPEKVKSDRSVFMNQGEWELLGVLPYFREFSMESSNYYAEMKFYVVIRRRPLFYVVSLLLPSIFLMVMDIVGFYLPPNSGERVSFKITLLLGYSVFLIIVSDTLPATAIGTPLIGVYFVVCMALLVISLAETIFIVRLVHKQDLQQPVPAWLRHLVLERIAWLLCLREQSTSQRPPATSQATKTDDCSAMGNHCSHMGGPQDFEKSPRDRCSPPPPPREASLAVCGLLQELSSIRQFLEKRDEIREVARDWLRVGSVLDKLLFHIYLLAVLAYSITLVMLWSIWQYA

[27] = molecular target: Ephrin type-A receptor 1 (Homo sapiens) (UniProt P21709); settings: Compound concentration 1000.0 nM
[28] = molecular target: BMP-2-inducible protein kinase (Homo sapiens) (UniProt Q9NSY1); settings: Compound concentration 1000.0 nM
[29] = molecular target: Mitogen-activated protein kinase kinase kinase 13 (Homo sapiens) (UniProt O43283); settings: Compound concentration 1000.0 nM
[30] = molecular target: SRSF protein kinase 1 (Homo sapiens) (UniProt Q96SB4); settings: Compound concentration 1000.0 nM
[31] = molecular target: Ribosomal protein S6 kinase alpha-5 (Homo sapiens) (UniProt O75582); settings: Compound concentration 1000.0 nM
[32] = molecular target: Activin receptor type-1-like (Homo sapiens) (UniProt P37023); settings: Compound concentration 1000.0 nM
[33] = molecular target: Protein kinase C epsilon type (Homo sapiens) (UniProt Q02156); settings: Compound concentration 1000.0 nM
[34] = molecular target: Mitogen-activated protein kinase kinase kinase 11 (Homo sapiens) (UniProt Q16584); settings: Compound concentration 1000.0 nM
[35] = molecular target: Tyrosine-protein kinase SYK (Homo sapiens) (UniProt P43405); settings: Compound concentration 1000.0 nM
[36] = molecular target: Ephrin type-B receptor 3 (Homo sapiens) (UniProt P54753); settings: Compound concentration 1000.0 nM
[37] = molecular target: Serine/threonine-protein kinase PLK3 (Homo sapiens) (UniProt Q9H4B4); settings: Compound concentration 1000.0 nM
[38] = molecular target: Fibroblast growth factor receptor 3 (Homo sapiens) (UniProt P22607); settings: Compound concentration 1000.0 nM
[39] = molecular target: Serine/threonine-protein kinase 24 (Homo sapiens) (UniProt Q9Y6E0); settings: Compound concentration 1000.0 nM
Serine/threonine-protein kinase 24 (Homo sapiens), sequence (Q9Y6E0 whole entry, looked up): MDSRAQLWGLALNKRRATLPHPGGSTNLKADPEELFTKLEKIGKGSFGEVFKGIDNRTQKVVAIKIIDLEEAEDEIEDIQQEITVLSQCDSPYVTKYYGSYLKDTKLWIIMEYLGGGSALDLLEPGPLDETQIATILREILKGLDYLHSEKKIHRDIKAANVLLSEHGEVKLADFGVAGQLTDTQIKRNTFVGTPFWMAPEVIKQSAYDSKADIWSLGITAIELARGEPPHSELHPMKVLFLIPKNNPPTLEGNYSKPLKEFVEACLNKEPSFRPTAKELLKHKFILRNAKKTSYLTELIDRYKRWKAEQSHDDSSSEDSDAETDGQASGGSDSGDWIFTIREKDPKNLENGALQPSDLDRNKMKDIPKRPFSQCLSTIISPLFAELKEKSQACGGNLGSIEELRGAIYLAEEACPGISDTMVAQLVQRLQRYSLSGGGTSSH

NT-3 growth factor receptor (Homo sapiens), sequence (Q16288 32-839 limits assumed): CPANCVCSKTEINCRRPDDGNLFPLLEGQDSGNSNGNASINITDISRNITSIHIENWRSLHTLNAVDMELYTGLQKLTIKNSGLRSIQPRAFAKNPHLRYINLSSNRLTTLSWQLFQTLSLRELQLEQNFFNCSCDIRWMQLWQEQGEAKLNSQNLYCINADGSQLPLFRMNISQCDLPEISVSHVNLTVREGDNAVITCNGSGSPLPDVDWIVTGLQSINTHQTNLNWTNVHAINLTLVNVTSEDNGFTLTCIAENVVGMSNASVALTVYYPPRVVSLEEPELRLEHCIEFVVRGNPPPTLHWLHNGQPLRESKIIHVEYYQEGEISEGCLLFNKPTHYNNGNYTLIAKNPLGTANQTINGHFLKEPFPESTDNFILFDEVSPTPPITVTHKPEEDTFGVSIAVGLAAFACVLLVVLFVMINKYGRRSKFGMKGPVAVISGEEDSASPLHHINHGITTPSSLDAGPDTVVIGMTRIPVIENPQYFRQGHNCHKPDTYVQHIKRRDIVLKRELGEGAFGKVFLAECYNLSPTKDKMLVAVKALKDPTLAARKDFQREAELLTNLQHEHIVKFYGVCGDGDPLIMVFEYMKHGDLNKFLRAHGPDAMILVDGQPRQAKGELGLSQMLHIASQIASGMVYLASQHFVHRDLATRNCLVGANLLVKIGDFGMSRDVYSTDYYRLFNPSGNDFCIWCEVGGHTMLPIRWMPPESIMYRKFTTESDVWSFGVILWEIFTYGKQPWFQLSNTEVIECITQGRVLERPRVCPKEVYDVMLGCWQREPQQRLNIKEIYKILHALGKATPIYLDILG
Cyclin-dependent kinase 11A (Homo sapiens), sequence (Q9UQ88 whole entry): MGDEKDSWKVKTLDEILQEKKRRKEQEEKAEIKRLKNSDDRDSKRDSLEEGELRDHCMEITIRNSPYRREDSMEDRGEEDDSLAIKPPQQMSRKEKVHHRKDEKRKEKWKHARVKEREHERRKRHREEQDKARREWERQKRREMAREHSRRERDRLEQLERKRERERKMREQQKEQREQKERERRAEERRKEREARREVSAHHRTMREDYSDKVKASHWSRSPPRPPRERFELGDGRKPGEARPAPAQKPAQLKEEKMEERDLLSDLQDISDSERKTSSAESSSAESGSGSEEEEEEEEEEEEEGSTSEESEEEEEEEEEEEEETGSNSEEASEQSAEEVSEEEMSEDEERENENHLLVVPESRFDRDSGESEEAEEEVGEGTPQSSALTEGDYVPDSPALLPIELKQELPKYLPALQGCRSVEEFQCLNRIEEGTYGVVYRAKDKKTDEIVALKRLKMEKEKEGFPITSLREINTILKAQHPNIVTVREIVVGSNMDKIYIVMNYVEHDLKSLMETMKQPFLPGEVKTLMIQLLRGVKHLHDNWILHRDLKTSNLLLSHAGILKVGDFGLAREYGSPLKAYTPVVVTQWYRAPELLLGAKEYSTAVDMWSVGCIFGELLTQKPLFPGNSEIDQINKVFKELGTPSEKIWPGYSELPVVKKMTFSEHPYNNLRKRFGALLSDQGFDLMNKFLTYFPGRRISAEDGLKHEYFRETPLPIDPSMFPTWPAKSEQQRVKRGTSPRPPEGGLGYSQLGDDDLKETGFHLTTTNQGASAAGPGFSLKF
Serine/threonine-protein kinase PLK3 (Homo sapiens), sequence (Q9H4B4 whole entry, looked up): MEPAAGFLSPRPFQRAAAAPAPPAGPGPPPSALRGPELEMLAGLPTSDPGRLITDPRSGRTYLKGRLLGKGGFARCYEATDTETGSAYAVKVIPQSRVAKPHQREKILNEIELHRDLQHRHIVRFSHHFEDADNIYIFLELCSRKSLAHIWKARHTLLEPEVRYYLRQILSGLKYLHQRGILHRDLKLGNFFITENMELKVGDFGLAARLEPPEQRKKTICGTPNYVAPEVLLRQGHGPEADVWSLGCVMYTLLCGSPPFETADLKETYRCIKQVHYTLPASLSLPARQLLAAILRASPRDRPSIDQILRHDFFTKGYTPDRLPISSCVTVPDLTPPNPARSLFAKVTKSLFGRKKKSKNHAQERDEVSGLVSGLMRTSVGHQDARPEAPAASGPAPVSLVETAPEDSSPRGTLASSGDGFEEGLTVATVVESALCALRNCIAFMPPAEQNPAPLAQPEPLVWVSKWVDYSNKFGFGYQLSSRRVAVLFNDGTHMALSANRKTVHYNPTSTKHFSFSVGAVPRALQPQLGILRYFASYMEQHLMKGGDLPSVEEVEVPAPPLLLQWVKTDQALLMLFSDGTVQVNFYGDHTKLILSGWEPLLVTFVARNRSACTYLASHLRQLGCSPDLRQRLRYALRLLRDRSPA
Phosphatidylinositol 4,5-bisphosphate 3-kinase catalytic subunit alpha isoform (Homo sapiens), P42336 [E542K], sequence (P42336 whole entry E542K, canonical isoform): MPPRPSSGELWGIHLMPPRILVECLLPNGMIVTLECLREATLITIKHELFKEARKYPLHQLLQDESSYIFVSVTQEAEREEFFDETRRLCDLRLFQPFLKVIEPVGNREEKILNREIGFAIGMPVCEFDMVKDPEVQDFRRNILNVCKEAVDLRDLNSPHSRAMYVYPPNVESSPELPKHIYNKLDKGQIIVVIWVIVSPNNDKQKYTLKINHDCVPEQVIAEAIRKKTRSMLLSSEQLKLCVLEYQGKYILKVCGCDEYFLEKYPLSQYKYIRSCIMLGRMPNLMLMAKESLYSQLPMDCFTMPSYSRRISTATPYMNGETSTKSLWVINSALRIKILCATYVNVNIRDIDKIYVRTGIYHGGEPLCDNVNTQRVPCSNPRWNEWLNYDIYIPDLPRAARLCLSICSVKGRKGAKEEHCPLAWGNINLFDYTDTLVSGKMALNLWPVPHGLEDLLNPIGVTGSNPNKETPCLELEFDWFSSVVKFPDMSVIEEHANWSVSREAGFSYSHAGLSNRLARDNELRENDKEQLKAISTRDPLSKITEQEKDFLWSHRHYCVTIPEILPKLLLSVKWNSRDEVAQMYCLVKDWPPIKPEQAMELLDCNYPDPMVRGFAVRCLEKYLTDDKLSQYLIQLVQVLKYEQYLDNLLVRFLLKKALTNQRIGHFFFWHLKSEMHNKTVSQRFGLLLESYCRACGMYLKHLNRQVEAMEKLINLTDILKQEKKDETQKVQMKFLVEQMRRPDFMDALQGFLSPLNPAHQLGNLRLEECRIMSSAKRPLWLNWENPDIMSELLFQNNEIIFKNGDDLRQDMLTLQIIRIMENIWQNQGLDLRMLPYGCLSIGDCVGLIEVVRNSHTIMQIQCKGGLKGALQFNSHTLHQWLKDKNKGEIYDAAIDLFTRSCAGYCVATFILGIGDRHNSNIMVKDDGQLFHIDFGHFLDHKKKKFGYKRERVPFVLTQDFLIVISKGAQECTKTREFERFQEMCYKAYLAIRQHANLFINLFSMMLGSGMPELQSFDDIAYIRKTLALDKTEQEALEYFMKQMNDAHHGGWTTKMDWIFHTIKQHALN
cAMP-dependent protein kinase catalytic subunit PRKX (Homo sapiens), sequence (P51817 whole entry): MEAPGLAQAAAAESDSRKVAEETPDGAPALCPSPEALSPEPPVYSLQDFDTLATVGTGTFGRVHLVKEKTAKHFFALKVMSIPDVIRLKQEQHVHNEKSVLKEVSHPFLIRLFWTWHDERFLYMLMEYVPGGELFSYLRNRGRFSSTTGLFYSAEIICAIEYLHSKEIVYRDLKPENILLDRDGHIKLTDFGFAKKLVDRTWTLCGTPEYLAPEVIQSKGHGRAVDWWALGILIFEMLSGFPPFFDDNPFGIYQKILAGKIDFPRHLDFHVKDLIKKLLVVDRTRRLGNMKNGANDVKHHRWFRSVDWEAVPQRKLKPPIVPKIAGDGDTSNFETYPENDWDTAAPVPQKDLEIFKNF
Ribosomal protein S6 kinase alpha-5 (Homo sapiens), sequence (O75582 whole entry, looked up): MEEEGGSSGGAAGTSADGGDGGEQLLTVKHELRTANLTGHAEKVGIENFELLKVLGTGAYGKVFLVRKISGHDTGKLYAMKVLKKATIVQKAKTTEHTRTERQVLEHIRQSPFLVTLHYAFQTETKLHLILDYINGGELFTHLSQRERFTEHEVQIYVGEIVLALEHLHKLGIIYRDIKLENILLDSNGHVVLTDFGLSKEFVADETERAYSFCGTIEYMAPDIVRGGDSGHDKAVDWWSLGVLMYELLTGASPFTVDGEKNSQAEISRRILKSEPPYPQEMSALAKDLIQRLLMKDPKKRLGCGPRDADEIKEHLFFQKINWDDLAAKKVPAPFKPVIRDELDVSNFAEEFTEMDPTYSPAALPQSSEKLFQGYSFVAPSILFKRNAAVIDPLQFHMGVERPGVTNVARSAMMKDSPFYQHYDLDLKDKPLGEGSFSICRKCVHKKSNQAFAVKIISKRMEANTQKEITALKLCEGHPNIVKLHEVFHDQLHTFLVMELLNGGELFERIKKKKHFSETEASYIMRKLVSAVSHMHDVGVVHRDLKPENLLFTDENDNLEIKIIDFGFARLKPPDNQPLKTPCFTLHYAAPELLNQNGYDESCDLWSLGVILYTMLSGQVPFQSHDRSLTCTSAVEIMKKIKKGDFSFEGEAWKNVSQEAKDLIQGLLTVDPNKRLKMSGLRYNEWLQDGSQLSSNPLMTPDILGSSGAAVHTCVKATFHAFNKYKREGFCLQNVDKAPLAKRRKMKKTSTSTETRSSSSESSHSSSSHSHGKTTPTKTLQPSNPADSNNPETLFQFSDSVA

CS(=O)(=O)NCC[C@H](NC(=O)c1cncc2c1cnn2-c1ccc(F)cc1)c1ccnc(S(C)(=O)=O)c1 [BI 9307]
inactive: residual activity [1] 100% | inhibition [2] 38.9% | residual activity [3] 100% | residual activity [4] 100% | residual activity [5] 97% | residual activity [6] 79% | residual activity [7] 100% | residual activity [8] 100% | residual activity [9] 100% | residual activity [10] 97% | residual activity [11] 100% | residual activity [12] 90% | residual activity [13] 86% | residual activity [14] 100% | residual activity [15] 96% | residual activity [16] 97% | residual activity [17] 100% | residual activity [18] 93% | residual activity [19] 100% | inhibition [20] -0.92% | residual activity [21] 66% | residual activity [22] 86% | residual activity [23] 100% | residual activity [24] 80% | residual activity [25] 100% | inhibition [26] 10.2% | residual activity [27] 100% | residual activity [28] 92% | residual activity [29] 100% | residual activity [30] 83% | residual activity [31] 88% | residual activity [32] 96% | residual activity [33] 100% | residual activity [34] 100% | residual activity [35] 100% | residual activity [36] 100% | residual activity [37] 100% | residual activity [38] 100% | residual activity [39] 100%

CS(=O)(=O)c1cc(C2(NC(=O)c3cncc4c3cnn4-c3ccc(F)cc3)CC2)ccn1 [BI 639667]
inactive: residual activity [1] 100% | inhibition [2] 14.5% | residual activity [3] 100% | residual activity [4] 85% | residual activity [5] 100% | residual activity [6] 100% | residual activity [7] 100% | residual activity [8] 90% | residual activity [9] 77% | residual activity [10] 100% | residual activity [11] 99% | residual activity [12] 100% | residual activity [13] 100% | residual activity [14] 100% | residual activity [15] 100% | residual activity [16] 93% | residual activity [17] 74% | residual activity [18] 99% | residual activity [19] 100% | inhibition [20] -7.9% | residual activity [21] 80% | residual activity [22] 100% | residual activity [23] 98% | residual activity [24] 91% | residual activity [25] 75% | inhibition [26] 12.9% | residual activity [27] 100% | residual activity [28] 89% | residual activity [29] 76% | residual activity [30] 100% | residual activity [31] 100% | residual activity [32] 100% | residual activity [33] 100% | residual activity [34] 100% | residual activity [35] 100% | residual activity [36] 100% | residual activity [37] 68% | residual activity [38] 100% | residual activity [39] 82%
